Results as given in patent US12215140B2, “Method of stabilizing protein contained in specimen and solution for stabilizing protein contained in specimen” (EIKEN KAGAKU KABUSHIKI KAISHA, priority 2018, dated 2025).

Biological target: hemoglobin (Homo sapiens, UniProt P68871+P69905)
Assay: Stability of hemoglobin in samples preserved at 37° C. in preservation solution containing no haptoglobin, Hb measured by latex agglutination method (Examples 8, 9 and Table 10)
Conditions: arylboronic acid 0.5 mmol/L
Protocol: Preservation solutions were prepared with the addition of 40 mmol/L HEPES (pH 6.8), 0.1% BSA, 0.1% NaN3, and 0 to 2.5 mmol/L phenylboronic acid. […] Samples obtained by adding hemoglobin-added fecal specimens to the preservation solutions so that the fecal concentration would be 0.5% were preserved at 37° C. for 0, 16, 38, and 62 hours. The fecal specimens were added with hemoglobin having an amount such that the hemoglobin concentration in the samples would be about 300 μg/L. Instead of the fecal specimens to which hemoglobin was added, samples containing no fecal specimens, in which hemoglobin was added to the preservation solutions so that the hemoglobin concentration in the samples would be 300 μg/L, were similarly preserved. The hemoglobin (Hb) concentrations (μg/L) in the preserved samples were measured by the latex agglutination method using the same measurement reagent and measurement device as in Example 1.
The concentration of phenylboronic acid in the preservation solutions of Example 8 was fixed to 0.5 mmol/L, preservation solutions to which sorbitol or sucrose was further added at 10 to 250 mmol/L or trehalose, glucose, fructose, or mannitol was further added at 50 to 100 mmol/L were prepared, and testing was conducted in the same manner as in Example 8. In addition, preservation solutions to which the phenylboronic acid was added but no sugar was added were prepared, preservation solutions to which the phenylboronic acid and sugar were not added were prepared for the comparative examples, and testing was conducted in the same manner.
For comparative examples, preservation solutions to which no arylboronic acid was added were prepared, and testing was conducted in the same manner.

[1] = Feces 1, 0 h at 37° C., no sugar
[2] = Feces 1, 16 h at 37° C., no sugar
[3] = Feces 1, 38 h at 37° C., no sugar
[4] = Feces 1, 62 h at 37° C., no sugar
[5] = Feces 2, 0 h at 37° C., no sugar
[6] = Feces 2, 16 h at 37° C., no sugar
[7] = Feces 2, 38 h at 37° C., no sugar
[8] = Feces 2, 62 h at 37° C., no sugar
[9] = Feces 3, 0 h at 37° C., no sugar
[10] = Feces 3, 16 h at 37° C., no sugar
[11] = Feces 3, 38 h at 37° C., no sugar
[12] = Feces 3, 62 h at 37° C., no sugar
[13] = No feces, 0 h at 37° C., no sugar
[14] = No feces, 16 h at 37° C., no sugar
[15] = No feces, 38 h at 37° C., no sugar
[16] = No feces, 62 h at 37° C., no sugar

Sequence of hemoglobin (P69905 2-142): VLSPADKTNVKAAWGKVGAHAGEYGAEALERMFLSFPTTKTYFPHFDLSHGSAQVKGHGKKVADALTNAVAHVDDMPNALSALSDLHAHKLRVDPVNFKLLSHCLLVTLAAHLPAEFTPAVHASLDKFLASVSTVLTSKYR
Sequence of hemoglobin (P68871 2-147): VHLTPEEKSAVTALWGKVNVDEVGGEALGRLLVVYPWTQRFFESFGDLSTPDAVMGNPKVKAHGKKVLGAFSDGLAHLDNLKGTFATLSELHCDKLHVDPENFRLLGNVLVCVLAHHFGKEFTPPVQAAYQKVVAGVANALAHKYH

OB(O)c1cccc(O)c1 [3H-PBA, 3-hydroxyphenylboronic acid]
Hb concentration [1]: 298 µg/L | Recovery ratio with respect to Hb after 0 days [1]: 100% | Hb concentration [2]: 171 µg/L | Recovery ratio with respect to Hb after 0 days [2]: 57% | Hb concentration [3]: 79 µg/L | Recovery ratio with respect to Hb after 0 days [3]: 26% | Hb concentration [4]: 25 µg/L | Recovery ratio with respect to Hb after 0 days [4]: 8% | Hb concentration (Feces 1, 0 h at 37° C.): 298 µg/L | Recovery ratio with respect to Hb after 0 days (Feces 1, 0 h at 37° C.): 100% | Hb concentration (Feces 1, 16 h at 37° C.): 171 µg/L | Recovery ratio with respect to Hb after 0 days (Feces 1, 16 h at 37° C.): 57% | Hb concentration (Feces 1, 38 h at 37° C.): 79 µg/L | Recovery ratio with respect to Hb after 0 days (Feces 1, 38 h at 37° C.): 26% | Hb concentration (Feces 1, 62 h at 37° C.): 25 µg/L | Recovery ratio with respect to Hb after 0 days (Feces 1, 62 h at 37° C.): 8% | Hb concentration [5]: 295 µg/L | Recovery ratio with respect to Hb after 0 days [5]: 100% | Hb concentration [6]: 95 µg/L | Recovery ratio with respect to Hb after 0 days [6]: 32% | Hb concentration [7]: 11 µg/L | Recovery ratio with respect to Hb after 0 days [7]: 4% | Hb concentration [8]: 0 µg/L | Recovery ratio with respect to Hb after 0 days [8]: 0% | Hb concentration (Feces 2, 0 h at 37° C.): 295 µg/L | Recovery ratio with respect to Hb after 0 days (Feces 2, 0 h at 37° C.): 100% | Hb concentration (Feces 2, 16 h at 37° C.): 95 µg/L | Recovery ratio with respect to Hb after 0 days (Feces 2, 16 h at 37° C.): 32% | Hb concentration (Feces 2, 38 h at 37° C.): 11 µg/L | Recovery ratio with respect to Hb after 0 days (Feces 2, 38 h at 37° C.): 4% | Hb concentration (Feces 2, 62 h at 37° C.): 0 µg/L | Recovery ratio with respect to Hb after 0 days (Feces 2, 62 h at 37° C.): 0% | Hb concentration [9]: 295 µg/L | Recovery ratio with respect to Hb after 0 days [9]: 100% | Hb concentration [10]: 106 µg/L | Recovery ratio with respect to Hb after 0 days [10]: 36% | Hb concentration [11]: 9 µg/L | Recovery ratio with respect to Hb after 0 days [11]: 3% | Hb concentration [12]: 0 µg/L | Recovery ratio with respect to Hb after 0 days [12]: 0% | Hb concentration (Feces 3, 0 h at 37° C.): 295 µg/L | Recovery ratio with respect to Hb after 0 days (Feces 3, 0 h at 37° C.): 100% | Hb concentration (Feces 3, 16 h at 37° C.): 106 µg/L | Recovery ratio with respect to Hb after 0 days (Feces 3, 16 h at 37° C.): 36% | Hb concentration (Feces 3, 38 h at 37° C.): 9 µg/L | Recovery ratio with respect to Hb after 0 days (Feces 3, 38 h at 37° C.): 3% | Hb concentration (Feces 3, 62 h at 37° C.): 0 µg/L | Recovery ratio with respect to Hb after 0 days (Feces 3, 62 h at 37° C.): 0% | Hb concentration [13]: 306 µg/L | Recovery ratio with respect to Hb after 0 days [13]: 100% | Hb concentration [14]: 282 µg/L | Recovery ratio with respect to Hb after 0 days [14]: 92% | Hb concentration [15]: 263 µg/L | Recovery ratio with respect to Hb after 0 days [15]: 86% | Hb concentration [16]: 264 µg/L | Recovery ratio with respect to Hb after 0 days [16]: 86% | Hb concentration (No feces, 0 h at 37° C.): 306 µg/L | Recovery ratio with respect to Hb after 0 days (No feces, 0 h at 37° C.): 100% | Hb concentration (No feces, 16 h at 37° C.): 282 µg/L | Recovery ratio with respect to Hb after 0 days (No feces, 16 h at 37° C.): 92% | Hb concentration (No feces, 38 h at 37° C.): 263 µg/L | Recovery ratio with respect to Hb after 0 days (No feces, 38 h at 37° C.): 86% | Hb concentration (No feces, 62 h at 37° C.): 264 µg/L | Recovery ratio with respect to Hb after 0 days (No feces, 62 h at 37° C.): 86%
